Format in all cases: in vivo
Common to all, as to settings: 100 = 100% disease control

In one assay the test system is Septoria nodorum. As to the kind of experiment: Test F: wheat glume blotch on wheat seedlings, sprayed the day before inoculation, visual disease rating. The procedure, abridged: (§1)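 200 ppm run-off spray (500 g/ha equivalent); * = 40 ppm. Vehicle: acetone/water 50/50, 250 ppm Trem® 014.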
A further assay relates to Botrytis cinerea. The assay is described as follows: Test C: tomato Botrytis on tomato seedlings, sprayed the day before inoculation, visual disease rating. The procedure, abridged:
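Tomato seedlings were sprayed until run-off with test suspensions in acetone/water (50/50) carrying 250 ppm polyhydric alcohol ester surfactant. Standard dose was 200 ppm, with 40 ppm for marked entries.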

Another assay concerns Septoria tritici. The assay is described as follows: Test G: wheat leaf blotch on wheat seedlings, sprayed the day before inoculation, visual disease rating. The procedure, abridged:
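Visual disease ratings taken 19 days after transfer to a 20° C growth chamber, following 48 h in saturated atmosphere at 24° C. Seedlings had been sprayed to run-off one day before spore inoculation. Dose 200 ppm, or 40 ppm where starred.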

The subject of assay [1] is Puccinia recondita f. sp. tritici. The assay is described as follows: Test I: wheat leaf rust on wheat seedlings, sprayed the day before inoculation, visual disease rating. The procedure, abridged: as §1
In a further assay the test system is Alternaria solani. As to the kind of experiment: Test D: tomato early blight, sprayed the day before inoculation, visual disease rating. The procedure, abridged:
as §1

For assay [2], the system named is Erysiphe graminis f. sp. tritici. The assay is described as follows: Test J: wheat powdery mildew on wheat seedlings, sprayed the day before inoculation, visual disease rating. The procedure, abridged:
as §1

[3] abbreviates: 200 ppm, 0 = no control relative to controls.
The mark [4] stands for this setting: 40 ppm (marked *), 0 = no control.

These results are taken from patent US20110045101A1, “FUNGICIDAL SUBSTITUTED AZOLES” (E.I. Du Pont De Nemours and Company, priority 2009, published 2011).

Marks after values point to notes of the source that are not given here.

As to `Cc1ccc(-n2c(Br)nc(Cl)c2-c2c(F)ccc(F)c2Cl)cc1` [compound 197], in the assay with Septoria nodorum (200 ppm, 0 = no control), the “Test F disease control rating” value is reported as 0%. Further, in the assay on Botrytis cinerea (200 ppm, 0 = no control), the “Test C disease control rating” value is recorded as 99%. The “Test G disease control rating” value in the assay with Septoria tritici (200 ppm, 0 = no control) was 93%. The “Test I disease control rating” value in assay [1] (200 ppm, 0 = no control) was found to be 100%. The “Test D disease control rating” value with Alternaria solani (200 ppm, 0 = no control) is given as 99%. Besides, the “Test J disease control rating” value in assay [2] (200 ppm, 0 = no control) was determined as 100%.
As to `Cc1nn(C)c(-c2c(F)cccc2F)c1-c1cccc(F)c1` [Compound 60, 5-(2,6-difluorophenyl)-4-(3-fluorophenyl)-1,3-dimethyl-1H-pyrazole], the pest or weed control at 200 ppm with Septoria nodorum (Parastagonospora nodorum, 264 h, 200 ppm, 0 = no control relative to controls) is 0%; with Botrytis cinerea (Botrytis cinerea, 120 h, 200 ppm, 0 = no control relative to controls), 81%; in the assay with Septoria tritici (Zymoseptoria tritici, 504 h, 200 ppm, 0 = no control relative to controls), 2%; in assay [1] (Puccinia recondita, 168 h, 200 ppm, 0 = no control relative to controls) it was 0%; with Alternaria solani (Alternaria solani, 168 h, 200 ppm, 0 = no control relative to controls) it was 0%; in assay [2] (Blumeria graminis, 168 h, 200 ppm, 0 = no control relative to controls) it was 0%.
`Fc1cccc(F)c1-c1c(Cl)nc(Br)n1Cc1ccccc1` [compound 95]: the “Test F disease control rating” value in the assay with Septoria nodorum (setting [3]) is 95%. The “Test C disease control rating” value in the assay with Botrytis cinerea (setting [3]) is on record as 96%. Besides, the “Test G disease control rating” value in the assay on Septoria tritici (setting [3]) was 95%. In addition, the “Test I disease control rating” value in assay [1] (setting [3]) was 100%. The “Test D disease control rating” value in the assay on Alternaria solani (setting [3]) is listed as 97%. The “Test J disease control rating” value in assay [2] (setting [3]) is listed as 100%.
As to `Fc1cc(F)c(-n2c(Cl)nc(Br)c2-c2ccc(Cl)cc2)c(F)c1` [compound 233], in the assay on Septoria nodorum (setting [4]), the “Test F disease control rating” value is given as 0* %. For the same molecule, the “Test C disease control rating” value with Botrytis cinerea (setting [4]) is on record as 96* %. In the assay on Septoria tritici (setting [4]), the “Test G disease control rating” value is reported as 95* %. Besides, the “Test I disease control rating” value in assay [1] (setting [4]) is on record as 41* %. The “Test D disease control rating” value in the assay with Alternaria solani (setting [4]) is reported as 88* %. Moreover, the “Test J disease control rating” value in assay [2] (setting [4]) is 94* %.
Turning to `CCn1nc(Br)c(-c2c(F)cccc2F)c1-c1ccc(Cl)cc1` [compound 165], the “Test F disease control rating” value with Septoria nodorum (200 ppm, 0 = no control) stood at 0%. Besides, the “Test C disease control rating” value with Botrytis cinerea (200 ppm, 0 = no control) is reported as 0%. The “Test G disease control rating” value with Septoria tritici (200 ppm, 0 = no control) is recorded as 93%. Also, the “Test I disease control rating” value in assay [1] (200 ppm, 0 = no control) stood at 27%. The “Test D disease control rating” value in the assay on Alternaria solani (200 ppm, 0 = no control) turned out to be 0%. The “Test J disease control rating” value in assay [2] (200 ppm, 0 = no control) stood at 93%.
Take `Fc1cccc(F)c1-c1c(Cl)nc(Br)n1-c1ccc(Br)cc1` [compound 66]: the “Test F disease control rating” value with Septoria nodorum (setting [3]) is listed as 99%. In the assay on Botrytis cinerea (setting [3]), the “Test C disease control rating” value was 99%. Further, in the assay with Septoria tritici (setting [3]), the “Test G disease control rating” value was found to be 94%. For the same molecule, the “Test I disease control rating” value in assay [1] (setting [3]) came to 99%. In addition, in the assay on Alternaria solani (setting [3]), the “Test D disease control rating” value is 100%. The “Test J disease control rating” value in assay [2] (setting [3]) is given as 99%.
For the molecule `COc1cc(Cl)cc(F)c1-c1c(Cl)nc(C)n1-c1ccc(Cl)cc1` [compound 149], the “Test F disease control rating” value with Septoria nodorum (200 ppm, 0 = no control) is listed as 98%. Moreover, the “Test C disease control rating” value with Botrytis cinerea (200 ppm, 0 = no control) turned out to be 53%. Moreover, the “Test G disease control rating” value with Septoria tritici (200 ppm, 0 = no control) stood at 96%. Besides, in assay [1] (200 ppm, 0 = no control), the “Test I disease control rating” value stood at 95%. The “Test D disease control rating” value in the assay with Alternaria solani (200 ppm, 0 = no control) was 0%. For the same molecule, the “Test J disease control rating” value in assay [2] (200 ppm, 0 = no control) is on record as 95%.
As to `COc1cc(F)c(-c2c(Cl)ncn2-c2ccc(F)cc2)c(F)c1` [compound 136], the “Test F disease control rating” value with Septoria nodorum (setting [3]) was found to be 99%. Moreover, in the assay on Botrytis cinerea (setting [3]), the “Test C disease control rating” value is reported as 99%. In addition, the “Test G disease control rating” value with Septoria tritici (setting [3]) amounted to 96%. For the same molecule, the “Test I disease control rating” value in assay [1] (setting [3]) is listed as 100%. Moreover, the “Test D disease control rating” value in the assay with Alternaria solani (setting [3]) is 100%. In assay [2] (setting [3]), the “Test J disease control rating” value came to 100%.
`Fc1cccc(F)c1-n1cnc(Br)c1-c1ccc(Cl)cc1` [compound 200]: in the assay on Septoria nodorum (200 ppm, 0 = no control), the “Test F disease control rating” value is 0%. Further, the “Test C disease control rating” value in the assay with Botrytis cinerea (200 ppm, 0 = no control) is reported as 0%. Besides, in the assay with Septoria tritici (200 ppm, 0 = no control), the “Test G disease control rating” value worked out at 45%. In addition, the “Test I disease control rating” value in assay [1] (200 ppm, 0 = no control) is 0%. For the same molecule, in the assay with Alternaria solani (200 ppm, 0 = no control), the “Test D disease control rating” value was found to be 0%. For the same molecule, in assay [2] (200 ppm, 0 = no control), the “Test J disease control rating” value was found to be 21%.
Turning to `Cc1nc(C)n(-c2ccc(Cl)cc2)c1-c1c(F)ccc(F)c1Cl` [compound 388], the “Test F disease control rating” value in the assay on Septoria nodorum (setting [3]) turned out to be 60%. Further, the “Test C disease control rating” value in the assay on Botrytis cinerea (setting [3]) is on record as 99%. Further, in the assay on Septoria tritici (setting [3]), the “Test G disease control rating” value came to 99%. Also, in assay [1] (setting [3]), the “Test I disease control rating” value is listed as 100%. The “Test D disease control rating” value with Alternaria solani (setting [3]) turned out to be 100%. Besides, the “Test J disease control rating” value in assay [2] (setting [3]) is on record as 100%.
